Converted amounts (≈) assume the structure as drawn. Like-named read-outs stand apart in the source and are kept apart here.
Experiments:
Assay in all cases: Antibacterial activity (MIC), agar dilution
Format in all cases: cell-based
Aci. antitratus A-6 = details: 20 h, Aci. antitratus A-6; 10^6 cells per ml; 37° C., 20 hours; read-out: MIC
Source text: (§1) The amount of bacteria inoculated was 10^4 cells per plate (10^6 cells per ml).

E. coli NIHJ JC-2 = details: Escherichia coli, NIHJJC2, 20 h, E. coli NIHJ JC-2; 10^6 cells per ml; 37° C., 20 hours; read-out: MIC
Source text: as §1

E. coli TK-111 = details: Escherichia coli, TK111, 20 h
Source text: as §1

Ent. cloacae IID977 = details: Enterobacter cloacae, IID977, 20 h
Source text: as §1

Kl. pneumoniae Y-41 = details: Klebsiella pneumoniae, Y41, 10^6 cells per ml, 37° C., 20 hours, read-out: MIC
Source text: as §1

Kl. pneumoniae Y-50 = details: Klebsiella pneumoniae, Y50, 20 h, 10^6 cells per ml, 37° C., read-out: MIC
Source text: as §1

Pro. mirabilis T-111 = details: Proteus mirabilis, 37° C.
Source text: as §1

Pro. morganii T-216 = details: Morganella morganii, 37° C.
Source text: as §1

Pro. vulgaris GN3027 = details: Proteus vulgaris, GN3027, 20 h, Pro. vulgaris GN3027; 10^6 cells per ml; 37° C., 20 hours; read-out: MIC
Source text: as §1

Ps. aeruginosa IFO3445 = details: Pseudomonas aeruginosa; Ps. aeruginosa IFO3445; 10^6 cells per ml; 37° C., 20 hours; read-out: MIC
Source text: as §1

Ps. aeruginosa S-68 = details: Pseudomonas aeruginosa
Source text: as §1

St. aureus FDA209P = details: Staphylococcus aureus, FDA209P, 20 h
Source text: as §1

E. coli TK-3* = details: Escherichia coli, 20 h
Source text: as §1
(§2) * Penicillinase-producing bacteria

Kl. pneumoniae Y-4* = details: Klebsiella pneumoniae, 20 h, Kl. pneumoniae Y-4, penicillinase-producing; 10^6 cells per ml; read-out: MIC
Source text: as §1, §2

Ps. aeruginosa GN3379* = details: Pseudomonas aeruginosa, Ps. aeruginosa GN3379, penicillinase-producing, 10^6 cells per ml
Source text: as §1, §2

St. aureus F-137* = details: Staphylococcus aureus, 20 h
Source text: as §1, §2

E. coli GN5482** = details: Escherichia coli, 20 h; E. coli GN5482, cephalospolinase-producing; 10^6 cells per ml; read-out: MIC
Source text: as §1
(§3) ** Cephalospolinase-producing bacteria

Pro. vulgaris GN76** = details: Proteus vulgaris
Source text: as §1, §3

Ps. aeruginosa GN918** = details: Pseudomonas aeruginosa, Ps. aeruginosa GN918, cephalospolinase-producing, 10^6 cells per ml
Source text: as §1, §3

[1] = E. coli TK-111, 10^6 cells per ml, 37° C., 20 hours, read-out: MIC
[2] = Ent. cloacae IID977, 10^6 cells per ml, 37° C., 20 hours, read-out: MIC
[3] = T111, 10^6 cells per ml, 20 hours, read-out: MIC
[4] = E. coli TK-3, penicillinase-producing, 10^6 cells per ml, read-out: MIC
[5] = 20 h, Pro. vulgaris GN76, cephalospolinase-producing, 10^6 cells per ml, read-out: MIC
[6] = T216, 10^6 cells per ml, 20 hours, read-out: MIC
[7] = S68, Ps. aeruginosa S-68, 10^6 cells per ml, 37° C., 20 hours, read-out: MIC
[8] = St. aureus FDA209P, 10^6 cells per ml, 37° C., 20 hours, read-out: MIC
[9] = St. aureus F-137, penicillinase-producing, 10^6 cells per ml, read-out: MIC

Row | Compound | MIC (Aci. antitratus A-6) [µg/mL] | MIC (E. coli NIHJ JC-2) [µg/mL] | MIC (E. coli TK-111; [1]) [µg/mL] | MIC (Ent. cloacae IID977; [2]) [µg/mL] | MIC (Kl. pneumoniae Y-41) [µg/mL] | MIC (Kl. pneumoniae Y-50) [µg/mL] | MIC (Pro. mirabilis T-111; [3]) [µg/mL] | MIC (Pro. vulgaris GN3027) [µg/mL] | MIC (Ps. aeruginosa IFO3445) [µg/mL] | MIC (E. coli TK-3*; [4]) [µg/mL] | MIC (Kl. pneumoniae Y-4*) [µg/mL] | MIC (E. coli GN5482**) [µg/mL] | MIC (Pro. vulgaris GN76**; [5]) [µg/mL] | MIC (Ps. aeruginosa GN918**; 20 h, read-out: MIC) [µg/mL] | MIC (Pro. morganii T-216; [6]) [µg/mL] | MIC (Ps. aeruginosa S-68; [7]) [µg/mL] | MIC (St. aureus FDA209P; [8]) [µg/mL] | MIC (Ps. aeruginosa GN3379*; 20 h, read-out: MIC) [µg/mL] | MIC (St. aureus F-137*; [9]) [µg/mL] | other results
1 | O=C(O)c1cn(-c2ccc(O)cc2)c(-c2ccc3cccnc3c2)cc1=O | 25 (≈ 69.8 µM) | 0.78 (≈ 2.18 µM) | 0.39 (≈ 1.09 µM) | 3.13 (≈ 8.73 µM) | 6.25 (≈ 17.4 µM) | 1.56 (≈ 4.35 µM) | 25 (≈ 69.8 µM) | 0.39 (≈ 1.09 µM) | 25 (≈ 69.8 µM) | 0.39 (≈ 1.09 µM) | 12.5 (≈ 34.9 µM) | ≤ 0.05 | 3.13 (≈ 8.73 µM) | 3.13 (≈ 8.73 µM) |  |  |  |  |  | MIC (Pro. morganii T-216; T216, 20 h, 10^6 cells per ml): 6.25 µg/mL (≈ 17.4 µM); MIC (Ps. aeruginosa S-68; S68, 20 h): 12.5 µg/mL (≈ 34.9 µM); MIC (St. aureus FDA209P): 1.56 µg/mL (≈ 4.35 µM); MIC (Ps. aeruginosa GN3379*; GN3379, 20 h): 12.5 µg/mL (≈ 34.9 µM); MIC (St. aureus F-137*): 1.56 µg/mL (≈ 4.35 µM)
2 | CN1CCc2cc(-c3cc(=O)c(C(=O)O)cn3-c3ccc(O)cc3)ccc21 | 0.39 (≈ 1.08 µM) | 0.2 (≈ 0.552 µM) | ≤ 0.05 | 0.78 (≈ 2.15 µM) | 1.56 (≈ 4.3 µM) | 0.39 (≈ 1.08 µM) | 3.13 (≈ 8.64 µM) | 0.2 (≈ 0.552 µM) | 12.5 (≈ 34.5 µM) | 0.39 (≈ 1.08 µM) | 1.56 (≈ 4.3 µM) | ≤ 0.05 | 0.39 (≈ 1.08 µM) |  | 0.78 (≈ 2.15 µM) | 6.25 (≈ 17.2 µM) | 0.2 (≈ 0.552 µM) | 6.25 (≈ 17.2 µM) | 0.1 (≈ 0.276 µM) | MIC (Ps. aeruginosa GN918**; GN918, 20 h): 1.56 µg/mL (≈ 4.3 µM)
3 | CN(C)c1ccc(-c2cc(=O)c(C(=O)O)cn2-c2ccc(F)cc2O)cc1 | 0.78 (≈ 2.12 µM) | 0.78 (≈ 2.12 µM) |  |  | 6.25 (≈ 17 µM) | 1.56 (≈ 4.23 µM) |  | 0.39 (≈ 1.06 µM) | 12.5 (≈ 33.9 µM) |  | 6.25 (≈ 17 µM) | ≤ 0.05 |  | 50 (≈ 136 µM) | 3.13 (≈ 8.5 µM) | 12.5 (≈ 33.9 µM) | 0.2 (≈ 0.543 µM) | 25 (≈ 67.9 µM) | 0.2 (≈ 0.543 µM) | MIC (E. coli TK-111): 1.56 µg/mL (≈ 4.23 µM); MIC (Ent. cloacae IID977): 1.56 µg/mL (≈ 4.23 µM); MIC (Pro. mirabilis T-111; T111, 20 h, 10^6 cells per ml): 6.25 µg/mL (≈ 17 µM); MIC (E. coli TK-3*): 1.56 µg/mL (≈ 4.23 µM); MIC (Pro. vulgaris GN76**; GN76, 20 h): 1.56 µg/mL (≈ 4.23 µM)

— patent US4698352A, “4-oxo-1,4-dihydronicotinic acid derivatives, salts thereof, and antibacterial agents containing the same” (Toyama Chemical Co., Ltd., priority 1982, dated 1987)
